Experimental findings from patent publication US12606533B2, “3-phenylpropylamine derivative” (DAIICHI SANKYO COMPANY, LIMITED, priority 2023, dated 2026) are described below.

A word on the GI50: it is the concentration that inhibits growth by half. A higher GI50 goes with lower sensitivity of the cells. Broadly, the DC50 is the concentration giving 50% degradation. A higher DC50 goes with a less potent degrader.

For one experiment, the system named is NCI-H295R cells. In words: Proliferation inhibitory action on NCI-H295R (CellTiter-Glo, 7 days). It counts as cell-based, human. The procedure:
DMSO solutions of each compound were serially diluted with DMSO using a D300e Digital Dispenser (TECAN), and added to a 384-well plate (Thermo Fisher Scientific Inc.). NCI-H295R cells were seeded in a 384-well plate at 2×10^3 cells/40 μL/well and cultured for 7 days in a 37° C., 5% CO2 incubator. […] On the first day of culture (day 0) and the seventh day of culture (day 7), 10 μL/well of CellTiter-Glo (registered trademark) 2.0 Assay (Promega) was added, and the luminescence signal was detected using a multimode plate reader (EnVision, PerkinElmer). The cell proliferation rate was calculated from the luminescence amount on the day of compound addition (CO), the luminescence amount of the compound-free group after 7 days of culture (C7), and the luminescence amount of the compound-added group (T7), based on the following formula.

For the next experiment, the target named is T1, SF-1 (Homo sapiens, UniProt Q13285).
T1 construct: NCI-H295R SF-1-HiBiT cells with HiBiT tag knocked in at the endogenous SF1 locus; host or cells: NCI-H295R SF-1-HiBiT (knock-in at endogenous locus)
In words: SF1 degradation induction in NCI-H295R SF-1-HiBiT cells (HiBiT DC50). The format is cell-based. The following applies: 24 hr, concentration that induces 50% degradation of SF-1. As to the method:
NCI-H295R SF-1-HiBiT cells were seeded in a 384-well plate (Thermo Fisher Scientific Inc.) at 1×10^4 cells/50 μL/well and cultured at 37° C. in a 5% CO2 incubator for 24 hr. DMSO solutions of each compound were serially diluted with DMSO using a D300e Digital Dispenser (TECAN), added to a 384-well plate, and cultured in a 5% CO2 incubator at 37° C. for 24 hr. […] After completion of culture, the medium was discarded, and Nano-Glo (registered trade mark) HiBiT Lytic Detection System (Promega, Cat. No. N3040) was added at 20 μL/well and stirred with a plate mixer. Luminescence signals were then detected using a multimode plate reader (EnVision Xcite, PerkinElmer). The SF-1 protein degradation rate was calculated from the amount of luminescence (C) in the compound-free group and the amount of luminescence (T) in the compound-added group, based on the following formula.
The obtained data was analyzed using GraphPad Prism9 (GraphPad Software Inc.) or Genedata Screener (Genedata AG) to calculate the concentration that induces 50% degradation of SF-1 (DC50 value).
In general terms: HiBiT is a short tag that completes a luciferase, so light tracks the accessible tagged protein.

Like-named read-outs stand apart in the source and are kept apart here.

For the compound `COc1ccc([C@]2(CCN(Cc3ccc(C4=CC[C@H](CN5CCN(C(=O)c6ccc7c8c6O[C@@H]6COC[C@@H]6n8c(=O)n7C6CCC(=O)NC6=O)CC5)CC4)cc3)CC(C)(C)C(F)(F)F)CCOC(C)(C)C2)cc1` (relative stereo) [BV10, 3-[(6aS*,9aS*)-5-[(4-{[(4R)-4′-{[{2-[(4R)-4-(4-Methoxyphenyl)-2,2-dimethyltetrahydro-2H-pyran-4-yl]ethyl}(3,3,3-trifluoro-2,2-dimethylpropyl)amino]methyl}-2,3,4,5-tetrahydro[biphenyl]-4-yl]methyl}piperazin-1-yl)carbonyl]-1-oxo-6a, 7,9,9a-tetrahydrofuro[3,4-b]imidazo[1,5,4-de][1,4]benzoxazin-2(1H)-yl]piperidine-2,6-dione], the GI50 in the experiment with NCI-H295R cells (Homo sapiens, NCI-H295R, 168 h) is 123 nM. The compound also showed a DC50 at SF-1 of 14 nM.

The compound `COc1ccc([C@]2(CCN(Cc3ccc(C4=CC[C@H](C(=O)N5CCC(Nc6ccc7c8c6CCCn8c(=O)n7C6CCC(=O)NC6=O)CC5)CC4)c(F)c3)CC(C)(C)C(F)(F)F)CCOC(C)(C)C2)cc1` (single isomer, unassigned) [CG1, (3S) or (3R)-{7-[(1-{[(4R)-2′-Fluoro-4′-{[{2-[(4R)-4-(4-methoxyphenyl)-2,2-dimethyltetrahydro-2H-pyran-4-yl]ethyl}(3,3,3-trifluoro-2,2-dimethylpropyl)amino]methyl}-2,3,4,5-tetrahydro[biphenyl]-4-yl]carbonyl}piperidin-4-yl)amino]-2-oxo-5,6-dihydro-4H-imidazo[4,5,1-ij]quinolin-1(2H)-yl}piperidine-2,6-dione] yielded a GI50 in the experiment on NCI-H295R cells of 18 nM. In addition, the half-maximal degradation concentration (DC50) on SF-1 was 1.8 nM.

Take `COc1ccc([C@]2(CCN(Cc3ccc(C4=CC[C@H](C(=O)N5CCC(Nc6ccc7c8c6CCCn8c(=O)n7C6CCC(=O)NC6=O)CC5)CC4)c(F)c3)CC(C)(C)C(F)(F)F)CCOC(C)(C)C2)cc1` (single isomer, unassigned) [CH1, (3S) or (3R)-{7-[(1-{[(4R)-2′-Fluoro-4′-{[{2-[(4R)-4-(4-methoxyphenyl)-2,2-dimethyltetrahydro-2H-pyran-4-yl]ethyl}(3,3,3-trifluoro-2,2-dimethylpropyl)amino]methyl}-2,3,4,5-tetrahydro[biphenyl]-4-yl]carbonyl}piperidin-4-yl)amino]-2-oxo-5,6-dihydro-4H-imidazo[4,5,1-ij]quinolin-1(2H)-yl}piperidine-2,6-dione]: the GI50 in the experiment with NCI-H295R cells was 25 nM. The same compound displayed a half-maximal degradation concentration (DC50) at SF-1 of 2.8 nM.

`Cn1c(=O)n(C2CCC(=O)NC2=O)c2ccc(C(=O)N3CCN(CC4CC=C(c5ccc(CN(CC[C@@]6(c7ccc(OC(F)F)cc7)CCOC(C)(C)C6)CC(C)(C)C(F)(F)F)cc5)CC4)CC3)cc21` (stereo partly drawn) [AM10, 3-[5-({4-[(4′-{[(2-{(4R)-4-[4-(Difluoromethoxy)phenyl]-2,2-dimethyltetrahydro-2H-pyran-4-yl}ethyl) (3,3,3-trifluoro-2,2-dimethylpropyl)amino]methyl}-2,3,4,5-tetrahydro[biphenyl]-4-yl)methyl]piperazin-1-yl}carbonyl)-3-methyl-2-oxo-2,3-dihydro-1H-benzimidazol-1-yl]piperidine-2,6-dione] returned a concentration for 50% growth inhibition (GI50) with NCI-H295R cells (Homo sapiens, NCI-H295R, 168 h) of 106 nM. Moreover, it took 7.3 nM to reach half-maximal degradation on SF-1 (DC50).

Consider `COc1ccc([C@]2(CCN(Cc3ccc(OC4CC5(CCN(CC(=O)N6CCn7c(=O)n(C8CCC(=O)NC8=O)c8cccc6c87)CC5)C4)cc3)CC(C)(C)C(F)(F)F)CCOC(C)(C)C2)cc1` (stereo partly drawn) [AN5, 3-[6-{[2-(4-{[{2-[(4R)-4-(4-Methoxyphenyl)-2,2-dimethyltetrahydro-2H-pyran-4-yl]ethyl}(3,3,3-trifluoro-2,2-dimethylpropyl)amino]methyl}phenoxy)-7-azaspiro[3.5]nonan-7-yl]acetyl}-2-oxo-5,6-dihydro-4H-imidazo[1,5,4-de]quinoxalin-1(2H)-yl]piperidine-2,6-dione], for which it took 92 nM to inhibit growth in the experiment on NCI-H295R cells (Homo sapiens, NCI-H295R, 168 h) by half (GI50). On SF-1, this compound yielded a DC50 of 12 nM.

On to `COc1ccc([C@]2(CCN(Cc3ccc(C4=CC[C@H](CN5CCN(C(=O)c6ccc7c(c6)n(C)c(=O)n7[C@@H]6CCC(=O)NC6=O)CC5)CC4)cc3)CC(C)(C)C(F)(F)F)CCOC(C)(C)C2)cc1` [AO7, (3R)-3-{5-[(4-{[(4R)-4′-{[{2-[(4R)-4-(4-Methoxyphenyl)-2,2-dimethyltetrahydro-2H-pyran-4-yl]ethyl}(3,3,3-trifluoro-2,2-dimethylpropyl)amino]methyl}-2,3,4,5-tetrahydro[biphenyl]-4-yl]methyl}piperazin-1-yl)carbonyl]-3-methyl-2-oxo-2,3-dihydro-1H-benzimidazol-1-yl}piperidine-2,6-dione], for which the concentration for 50% growth inhibition (GI50) with NCI-H295R cells (Homo sapiens, NCI-H295R, 168 h) is 39 nM. This compound showed a 50% degradation concentration (DC50) at SF-1 of 5.4 nM.

As to `COc1ccc([C@]2(CCN(Cc3ccc(C4=CC[C@H](CN5CCN(C(=O)c6ccc7c(c6)n(C)c(=O)n7[C@H]6CCC(=O)NC6=O)CC5)CC4)cc3)CC(C)(C)C(F)(F)F)CCOC(C)(C)C2)cc1` [AP6, (3S)-3-{5-[(4-{[(4R)-4′-{[{2-[(4R)-4-(4-Methoxyphenyl)-2,2-dimethyltetrahydro-2H-pyran-4-yl]ethyl}(3,3,3-trifluoro-2,2-dimethylpropyl)amino]methyl}-2,3,4,5-tetrahydro[biphenyl]-4-yl]methyl}piperazin-1-yl)carbonyl]-3-methyl-2-oxo-2,3-dihydro-1H-benzimidazol-1-yl}piperidine-2,6-dione], in the experiment with NCI-H295R cells (Homo sapiens, NCI-H295R, 168 h), the GI50 came out at 68 nM. The same compound returned a DC50 on SF-1 of 4.1 nM.

For the compound `COc1ccc([C@]2(CCN(Cc3ccc(OC4CC5(CCN(CC(=O)Nc6ccc7c(c6)C(=O)N(C6CCC(=O)NC6=O)C7=O)CC5)C4)cc3)CC(C)(C)C(F)(F)F)CCOC(C)(C)C2)cc1` (stereo partly drawn) [AQ1, N-[2-(2,6-Dioxopiperidin-3-yl)-1,3-dioxo-2,3-dihydro-1H-isoindol-5-yl]-2-[2-(4-{[{2-[(4R)-4-(4-methoxyphenyl)-2,2-dimethyltetrahydro-2H-pyran-4-yl]ethyl}(3,3,3-trifluoro-2,2-dimethylpropyl)amino]methyl}phenoxy)-7-azaspiro[3.5]nonan-7-yl]acetamide], the GI50 with NCI-H295R cells (Homo sapiens, NCI-H295R, 168 h) came out at 286 nM. Further, the DC50 at SF-1 is 56 nM.

For the compound `COc1ccc([C@]2(CCN(Cc3ccc(C4=CCC(CN5CCN(C(=O)c6ccc7c(c6)n(C)c(=O)n7C6CCC(=O)NC6=O)CC5)CC4)cc3)CC3(C(F)(F)F)CCC3)CCOC(C)(C)C2)cc1` (stereo partly drawn) [AR7, 3-(5-{[4-({4′-[({2-[(4R)-4-(4-Methoxyphenyl)-2,2-dimethyltetrahydro-2H-pyran-4-yl]ethyl}{[1-(trifluoromethyl)cyclobutyl]methyl}amino)methyl]-2,3,4,5-tetrahydro[biphenyl]-4-yl}methyl)piperazin-1-yl]carbonyl}-3-methyl-2-oxo-2,3-dihydro-1H-benzimidazol-1-yl)piperidine-2,6-dione], the GI50 with NCI-H295R cells (Homo sapiens, NCI-H295R, 168 h) is 82 nM. At SF-1, this compound yielded a DC50 of 6.5 nM.

As to `COc1ccc([C@]2(CCN(Cc3ccc(C4=CCC(C(=O)N5CCN(Cc6ccc7c(c6)n(C)c(=O)n7C6CCC(=O)NC6=O)CC5)CC4)c(C)c3)CC(C)(C)C(F)(F)F)CCOC(C)(C)C2)cc1` (stereo partly drawn) [AS7, 3-[5-({4-[(4′-{[{2-[(4R)-4-(4-Methoxyphenyl)-2,2-dimethyltetrahydro-2H-pyran-4-yl]ethyl)(3,3,3-trifluoro-2,2-dimethylpropyl)amino]methyl}-2′-methyl-2,3,4,5-tetrahydro[biphenyl]-4-yl)carbonyl]piperazin-1-yl}methyl)-3-methyl-2-oxo-2,3-dihydro-1H-benzimidazol-1-yl]piperidine-2,6-dione], halving of growth in the experiment on NCI-H295R cells (Homo sapiens, NCI-H295R, 168 h) (GI50) required 56 nM. The compound further showed a DC50 on SF-1 of 4.1 nM.
